One block for each molecule: values may come before it.
Assays:
[1] = Antiproliferative activity against human A875 cells assessed as inhibition of cell growth incubated for 24 hrs by MTT reagent based ELISA; format: functional; conditions: A875, 24 h
MCF7 [2] = assay: Antiproliferative activity against human MCF7 cells assessed as inhibition of cell growth incubated for 24 hrs by MTT assay; format: functional, cell-based; conditions: MCF7, 24 h
HCT-116 [3] = assay: Antiproliferative activity against human HCT-116 cells assessed as inhibition of cell growth incubated for 24 hrs by MTT assay; format: functional, cell-based; conditions: HCT-116, 24 h
J82 = assay: Antiproliferative activity against human J82 cells assessed as inhibition of cell growth incubated for 72 hrs by MTT assay; format: functional, cell-based; conditions: J82, 72 h
AGS = assay: Antiproliferative activity against human AGS cells assessed as inhibition of cell growth incubated for 72 hrs by MTT assay; format: functional, cell-based
SK-MES-1 = assay: Antiproliferative activity against human SK-MES-1 cells assessed as inhibition of cell growth incubated for 72 hrs by MTT assay; format: functional, cell-based; conditions: SK-MES-1, 72 h
HL-60 = assay: Antiproliferative activity against human HL-60 cells assessed as inhibition of cell growth incubated for 72 hrs by MTT assay; format: functional, cell-based; conditions: HL-60, 72 h
[4] = Antiproliferative activity against human WM9 cells assessed as inhibition of cell growth incubated for 72 hrs by XTT assay; format: functional, cell-based; conditions: WM9, 72 h
WM164 = assay: Antiproliferative activity against human WM164 cells assessed as inhibition of cell growth incubated for 72 hrs by XTT assay; format: functional, cell-based; conditions: WM164, 72 h
[5] = Antiproliferative activity against human FS-1 [Human leukemia] cells assessed as inhibition of cell growth incubated for 72 hrs by XTT assay; format: functional, cell-based
MUGMel2 = assay: Antiproliferative activity against human MUG-Mel2 cells assessed as inhibition of cell growth incubated for 72 hrs by XTT assay; format: functional, cell-based; conditions: MUGMel2, 72 h
SBcl2 = assay: Antiproliferative activity against human SBcl2 cells assessed as inhibition of cell growth incubated for 72 hrs by XTT assay; format: functional, cell-based; conditions: SBcl2, 72 h
A549 [6] = assay: Antiproliferative activity against human A549 cells assessed as inhibition of cell growth incubated for 72 hrs by MTT reagent based microplate reader assay; format: functional; conditions: A549, 72 h
[7] = Antiproliferative activity against human A875 cells assessed as inhibition of cell growth incubated for 72 hrs by MTT reagent based microplate reader assay; format: functional; conditions: A875, 72 h
SW872 = assay: Antiproliferative activity against human SW872 cells assessed as inhibition of cell growth incubated for 72 hrs by MTT reagent based microplate reader assay; format: functional; conditions: SW872, 72 h
DLD-1 = assay: Antiproliferative activity against human DLD-1 cells assessed as inhibition of cell growth incubated for 96 hrs by CCK-8 assay; format: functional, cell-based; conditions: DLD-1, 96 h
HCT-8 = assay: Antiproliferative activity against human HCT-8 cells assessed as inhibition of cell growth incubated for 96 hrs by CCK-8 assay; format: functional, cell-based; conditions: HCT-8, 96 h
HCT-29 = assay: Antiproliferative activity against human HCT-29 cells assessed as inhibition of cell growth incubated for 96 hrs by CCK-8 assay; format: functional, cell-based; conditions: HCT-29, 96 h
DU-145 = assay: Cytotoxicity against human DU-145 cells incubated for 48 hrs by sulforhodamine B staining based spectrophotometric analysis; format: functional, cell-based; conditions: DU-145, 48 h
MCF7 [8] = assay: Cytotoxicity against human MCF7 cells incubated for 48 hrs by sulforhodamine B staining based spectrophotometric analysis; format: functional, cell-based; conditions: MCF7, 48 h
HCT-15 = assay: Cytotoxicity against human HCT-15 cells incubated for 48 hrs by MTT assay; format: functional, cell-based; conditions: HCT-15, 48 h
A2780 = assay: Cytotoxicity against human A2780 cells incubated for 48 hrs by MTT assay; format: functional, cell-based; conditions: A2780, 48 h
MDA-MB-231 = assay: Cytotoxicity against human MDA-MB-231 cells incubated for 48 hrs by MTT assay; format: functional, cell-based; conditions: MDA-MB-231, 48 h
HCT-116 [9] = assay: Cytotoxicity against human HCT-116 cells incubated for 48 hrs by MTT assay; format: functional, cell-based; conditions: HCT-116, 48 h
Bel-7402 = assay: Cytotoxicity against human Bel-7402 cells incubated for 48 hrs by MTT assay; format: functional, cell-based; conditions: Bel-7402, 48 h
MDA-MB-468 = assay: Cytotoxicity against human MDA-MB-468 cells assessed as reduction in cell growth incubated upto 72 hrs by MTT assay; format: functional, cell-based; conditions: MDA-MB-468, 72 h
MCF7 [10] = assay: Cytotoxicity against human MCF7 cells assessed as reduction in cell growth incubated upto 72 hrs by MTT assay; format: functional, cell-based; conditions: MCF7, 72 h
MV4-11 = assay: Cytotoxicity against human MV4-11 cells incubated for 48 hrs; format: functional, cell-based; conditions: MV4-11, 48 h
MOLM-14 = assay: Cytotoxicity against human MOLM-14 cells incubated for 48 hrs; format: functional, cell-based; conditions: MOLM-14, 48 h
MDA-MB-435 = assay: Cytotoxicity against human MDA-MB-435 cells incubated for 72 hrs by MTT assay; format: functional, cell-based; conditions: MDA-MB-435, 72 h
HCT-116 [11] = assay: Cytotoxicity against human HCT-116 cells incubated for 72 hrs by MTT assay; format: functional, cell-based; conditions: HCT-116, 72 h
A549 [12] = assay: Cytotoxicity against human A549 cells incubated for 72 hrs by MTT assay; format: functional, cell-based; conditions: A549, 72 h

SMILES: CC(C)=CC[C@@H](OC(=O)Cc1ccc(Oc2ccccc2)cc1)C1=CC(=O)c2c(O)ccc(O)c2C1=O
- IC50 [1]: 1240 nM

- IC50 (MCF7 [2]): 56000 nM
- IC50 (HCT-116 [3]): 75000 nM
SMILES: CC1=C/C(=N\NC(=O)CCCCCCCCCC(=O)NN)c2ccccc2C1=O

- IC50 (AGS): 15500 nM
- IC50 (SK-MES-1): 6400 nM
- IC50 (HL-60): 11900 nM
SMILES: CC(=O)N(C1=C2NCCN=C2c2ccccc2C1=O)c1ccccc1
- IC50 (J82): 2000 nM

SMILES: CC(C)=C/C=C/C1=C(C(CC=C(C)C)C2=CC(=O)c3c(O)ccc(O)c3C2=O)C(=O)c2c(O)ccc(O)c2C1=O (configuration not stated)
- IC50 [4]: 600 nM
- IC50 (WM164): 1700 nM
- IC50 [5]: 500 nM
- IC50 (MUGMel2): 700 nM
- IC50 (SBcl2): 300 nM

- IC50 (A549 [6]): 1620 nM
- IC50 (SW872): 690 nM
SMILES: CC(C)=CC[C@@H](OC(=O)/C=C\c1cccc(C(F)(F)F)c1)C1=CC(=O)c2c(O)ccc(O)c2C1=O
- IC50 [7]: 650 nM

- IC50 (DLD-1): 10000 nM
- IC50 (HCT-8): 2160 nM
- IC50 (HCT-29): 3570 nM
SMILES: COC(=O)C(CS[C@H](CC=C(C)C)C1=CC(=O)c2c(O)ccc(O)c2C1=O)NC(=O)c1cc(S(C)(=O)=O)ccc1OC (some centres not stated)

SMILES: O=C1C(Cl)=C(NCCN2CCN(C3=C(Cl)C(=O)c4ccccc4C3=O)CC2)C(=O)c2ccccc21
- IC50 (DU-145): 2520 nM
- IC50 (MCF7 [8]): 2160 nM

SMILES: CCCCCCCCC(OCCC(C)C)c1ccc2c(c1OC)/C(=N\O)C=C/C2=N\O (configuration not stated)
- IC50 (HCT-15): 36400 nM
- IC50 (A2780): 8260 nM
- IC50 (MDA-MB-231): 660 nM
- IC50 (HCT-116 [9]): 21500 nM
- IC50 (Bel-7402): 5110 nM

SMILES: CC1=C(Cl)C(=O)c2c(O)cccc2C1=O
- IC50 (MDA-MB-468): 600 nM
- IC50 (MCF7 [10]): 2000 nM

SMILES: O=C1C(NCCO)=C(C2=C(NCCO)C(=O)c3ccccc3C2=O)C(=O)c2ccccc21
- IC50 (MV4-11): 200 nM
- IC50 (MOLM-14): 160 nM

SMILES: CC1(C)O[C@H]2[C@@H](O1)[C@@H](Cn1nnc3c1C(=O)c1cccc(O)c1C3=O)O[C@@H]1OC(C)(C)O[C@@H]12
- IC50 (MDA-MB-435): 290 nM
- IC50 (HCT-116 [11]): 520 nM
- IC50 (A549 [12]): 990 nM
